Each structure is given as a SMILES string.

This assay has as its target T1, p38MAPKγ (MAPK12) (Homo sapiens, UniProt P53778).
T1 construct: purchased Life Technologies
T1 sequence (P53778 1-367): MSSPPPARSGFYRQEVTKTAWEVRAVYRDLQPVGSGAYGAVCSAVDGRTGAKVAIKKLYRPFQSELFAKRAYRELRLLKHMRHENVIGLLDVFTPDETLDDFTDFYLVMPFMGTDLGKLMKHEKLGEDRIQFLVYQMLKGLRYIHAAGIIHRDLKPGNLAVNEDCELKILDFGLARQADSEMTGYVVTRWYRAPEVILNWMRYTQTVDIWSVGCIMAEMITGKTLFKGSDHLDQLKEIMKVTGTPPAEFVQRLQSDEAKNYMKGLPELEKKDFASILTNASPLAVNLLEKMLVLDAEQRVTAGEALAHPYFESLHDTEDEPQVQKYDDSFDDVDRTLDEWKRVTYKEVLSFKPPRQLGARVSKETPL
The assay is described as follows: p38 MAPKγ enzyme inhibition (Z-LYTE FRET). The assay is classed as biochemical. As to conditions: Table 2B, unit inferred; read-out: p38 MAPKγ (Enzyme Profile). The procedure: The enzyme inhibitory activities of compounds disclosed herein were determined by FRET using synthetic peptides labelled with both donor and acceptor fluorophores (Z-LYTE, Life Technologies, Paisley, UK).
The inhibitory activities of compounds of the invention against p38MAPKγ (MAPK12: Life Technologies), were evaluated by determining the level of activation/phosphorylation of the target peptide. The enzyme (800 ng/mL, 2.5 μL) was incubated with the test compound (2.5 μL at either 40 μg/mL, 12 μg/mL, 4 μg/mL, 1.2 μg/mL, 0.4 μg/mL, 0.12 μg/mL, 0.04 μg/mL, 0.012 μg/mL, 0.004 μg/mL or 0.0012 μg/mL) for 2 h at RT. The FRET peptides (8 μM, 2.5 μL), and appropriate ATP solution (2.5 μL, 400 μM) were then added to the enzymes/compound mixtures and incubated for 1 h at RT. Development reagent (protease, 5 μL) was added for 1 h prior to detection in a fluorescence microplate reader (EnVision, Perkin Elmer).
In all cases, the site-specific protease cleaves non-phosphorylated peptide only and eliminates the FRET signal. Phosphorylation levels of each reaction were calculated using the ratio of coumarin emission (donor) over fluorescein emission (acceptor), for which low ratios indicate high phosphorylation and high ratios indicate low phosphorylation levels.

`CO[C@H]1CCCN(CCNC(=O)c2cnc(Nc3cc(COc4ccc(NC(=O)Nc5cc(C(C)(C)C)nn5-c5ccc(C)cc5)c5ccccc45)ccn3)cn2)C1` [Example 54, (S)-5-((4-(((4-(3-(3-(tert-butyl)-1-(p-tolyl)-1H-pyrazol-5-yl)ureido)naphthalen-1-yl)oxy)methyl)pyridin-2-yl)amino)-N-(2-(3-methoxypiperidin-1-yl)ethyl)pyrazine-2-carboxamide]: the IC50 was 150 nM.
For `CSc1cccc(-n2nc(C(C)(C)C)cc2NC(=O)Nc2ccc(OCc3ccnc(Nc4cnccn4)c3)c3ccccc23)c1` [Example 77] the value was 106 nM; for `Cc1ccc(-n2nc(C(C)(C)C)cc2NC(=O)Nc2ccc(OCc3ccnc(Nc4cnc(C(=O)NCC5CCN(C)CC5)cn4)c3)c3ccccc23)cc1` [Example 81], 16 nM; for `Cc1ccc(-n2nc(C(C)(C)C)cc2NC(=O)Nc2ccc(OCc3ccnc(Nc4cnc(C(=O)N[C@@H]5CCN(C)C5)cn4)c3)c3ccccc23)cc1` [Example 82], 46 nM.
The figure for `Cc1ccc(-n2nc(C(C)(C)C)cc2NC(=O)Nc2ccc(OCc3ccnc(Nc4cnc(C(=O)N[C@H]5CCN(C)C5)cn4)c3)c3ccccc23)cc1` [Example 83] is 39 nM; for `Cc1ccc(-n2nc(C(C)(C)C)cc2NC(=O)Nc2ccc(OCc3ccnc(Nc4cnc(C(=O)NCCN5CCC(O)CC5)cn4)c3)c3ccccc23)cc1` [Example 84] it is 67 nM.
As for `Cc1ccc(-n2nc(C(C)(C)C)cc2NC(=O)Nc2ccc(OCc3ccnc(Nc4cnc(C(=O)NCCN5C[C@@H](C)O[C@@H](C)C5)cn4)c3)c3ccccc23)cc1` [Example 85], the IC50 stood at 166 nM.
The figure for `Cc1ccc(-n2nc(C(C)(C)C)cc2NC(=O)Nc2ccc(OCc3ccnc(Nc4cnc(C(=O)NCCN5CCCC5)cn4)c3)c3ccccc23)cc1` [Example 86] is 19 nM.
For `Cc1ccc(-n2nc(C(C)(C)C)cc2NC(=O)Nc2ccc(OCc3ccnc(Nc4cnc(C(=O)NC[C@H](O)CN5CCOCC5)cn4)c3)c3ccccc23)cc1` [Example 87] the value was 63 nM; for `Cc1ccc(-n2nc(C(C)(C)C)cc2NC(=O)Nc2ccc(OCc3ccnc(Nc4cnc(C(=O)N[C@H]5CCCN(C)C5)cn4)c3)c3ccccc23)cc1` [Example 88], 233 nM.
The figure for `Cc1ccc(-n2nc(C(C)(C)C)cc2NC(=O)Nc2ccc(OCc3ccnc(Nc4cnc(C(=O)NC5CN(C)C5)cn4)c3)c3ccccc23)cc1` [Example 89] is 42 nM.
Take `Cc1ccc(-n2nc(C(C)(C)C)cc2NC(=O)Nc2ccc(OCc3ccnc(Nc4cnc(C(=O)NCCn5ccnc5C)cn4)c3)c3ccccc23)cc1` [Example 90]: the IC50 was 83 nM.
As for `COC(=O)N1CCN(CCNC(=O)c2cnc(Nc3cc(COc4ccc(NC(=O)Nc5cc(C(C)(C)C)nn5-c5ccc(C)cc5)c5ccccc45)ccn3)cn2)CC1` [Example 91], the IC50 amounted to 176 nM.
The figure for `COC1CCN(CCNC(=O)c2cnc(Nc3cc(COc4ccc(NC(=O)Nc5cc(C(C)(C)C)nn5-c5ccc(C)cc5)c5ccccc45)ccn3)cn2)CC1` [Example 92] is 117 nM; for `Cc1ccc(-n2nc(C(C)(C)C)cc2NC(=O)Nc2ccc(OCc3ccnc(Nc4cnc(C(=O)N[C@H]5COC[C@@H]5N5CCOCC5)cn4)c3)c3ccccc23)cc1` [Example 93] it is 103 nM; for `Cc1ccc(-n2nc(C(C)(C)C)cc2NC(=O)Nc2ccc(OCc3ccnc(Nc4cnc(C(=O)NCCN5CCC(F)(F)CC5)cn4)c3)c3ccccc23)cc1` [Example 94] it is 772 nM.
For `Cc1ccc(-n2nc(C(C)(C)C)cc2NC(=O)Nc2ccc(OCc3ccnc(Nc4cnc(C(=O)NCCN5CCC[C@@H](O)C5)cn4)c3)c3ccccc23)cc1` [Example 95] the value was 55 nM; for `Cc1ccc(-n2nc(C(C)(C)C)cc2NC(=O)Nc2ccc(OCc3ccnc(Nc4cnc(C(=O)NCCN5CCC(F)CC5)cn4)c3)c3ccccc23)cc1` [Example 96], 269 nM; for `Cc1ccc(-n2nc(C(C)(C)C)cc2NC(=O)Nc2ccc(OCc3ccnc(Nc4cnc(C(=O)NCCN5CC[C@@H](O)C5)cn4)c3)c3ccccc23)cc1` [Example 97], 34 nM.
Consider `CO[C@@H]1CCN(CCNC(=O)c2cnc(Nc3cc(COc4ccc(NC(=O)Nc5cc(C(C)(C)C)nn5-c5ccc(C)cc5)c5ccccc45)ccn3)cn2)C1` [Example 98], for which the IC50 was 116 nM.
On to `COCc1cccc(-n2nc(C(C)(C)C)cc2NC(=O)Nc2ccc(OCc3ccnc(Nc4cnc(C(=O)NCC5CCN(C)CC5)cn4)c3)c3ccccc23)c1` [Example 99], for which the IC50 turned out to be 11 nM.
For `Cc1ccc(-n2nc(C(C)(C)C)cc2NC(=O)Nc2ccc(OCc3ccnc(Nc4cnc(C(=O)NCCN5CC[C@@H](F)C5)cn4)c3)c3ccccc23)cc1` [Example 100] the value was 202 nM.
Turning to `Cc1ccc(-n2nc(C(C)(C)C)cc2NC(=O)Nc2ccc(OCc3ccnc(Nc4cnc(C(=O)NCCN5CCC[C@H](F)C5)cn4)c3)c3ccccc23)cc1` [Example 101], the IC50 came to 374 nM.
With `CC(=O)N1CCN(CCNC(=O)c2cnc(Nc3cc(COc4ccc(NC(=O)Nc5cc(C(C)(C)C)nn5-c5ccc(C)cc5)c5ccccc45)ccn3)cn2)CC1` [Example 102], the IC50 was 46 nM.
Take `Cc1ccc(-n2nc(C(C)(C)C)cc2NC(=O)Nc2ccc(OCc3ccnc(Nc4cnc(C(=O)NC5CCN(CCO)CC5)cn4)c3)c3ccccc23)cc1` [Example 103]: the IC50 is 72 nM.
The figure for `COc1ccc(-n2nc(C(C)(C)C)cc2NC(=O)Nc2ccc(OCc3ccnc(Nc4cnc(C)c(C)n4)c3)c3ccccc23)cc1F` [Example 252, 1-(3-(tert-butyl)-1-(3-fluoro-4-methoxyphenyl)-1H-pyrazol-5-yl)-3-(4-((2-((5,6-dimethylpyrazin-2-yl)amino)pyridin-4-yl)methoxy)naphthalen-1-yl)urea] is more than 15100 nM; for `CC(C)(C)c1cc(NC(=O)Nc2ccc(OCc3ccnc(Nc4cnc(CO)cn4)c3)c3ccccc23)n(-c2cccc(F)c2)n1` [Example 253, 1-(3-(tert-butyl)-1-(3-fluoro-phenyl)-1H-pyrazol-5-yl)-3-(4-((2-((5-(hydroxymethyl)pyrazin-2-yl)amino)pyridin-4-yl)methoxy)naphthalen-1-yl)urea] it is 75 nM.
The figure for `CCc1cncc(Nc2cc(COc3ccc(NC(=O)Nc4cc(C(C)(C)C)nn4-c4cc(C)cc(F)c4)c4ccccc34)ccn2)n1` [Example 254, 1-(3-(tert-butyl)-1-(3-fluoro-5-methylphenyl)-1H-pyrazol-5-yl)-3-(4-((2-((6-ethyl-pyrazin-2-yl)amino)pyridin-4-yl)methoxy)naphthalen-1-yl)urea] is 1930 nM; for `CCCc1cncc(Nc2cc(COc3ccc(NC(=O)Nc4cc(C(C)(C)C)nn4-c4cccc(F)c4)c4ccccc34)ccn2)n1` [Example 255, 1-(3-(tert-butyl)-1-(3-fluoro-phenyl)-1H-pyrazol-5-yl)-3-(4-((2-((6-propylpyrazin-2-yl)amino)pyridin-4-yl)methoxy)naphthalen-1-yl) urea] it is more than 15500 nM; for `CC(C)(C)c1cc(NC(=O)Nc2ccc(OCc3ccnc(Nc4cnc(CO)cn4)c3)c3ccccc23)n(-c2cccc(Cl)c2)n1` [Example 256, 1-(3-(tert-butyl)-1-(3-chloro-phenyl)-1H-pyrazol-5-yl)-3-(4-((2-((5-(hydroxymethyl)pyrazin-2-yl)amino)pyridin-4-yl)methoxy)naphthalen-1-yl)urea] it is more than 15400 nM.
For `CCN1CCN(C(=O)c2cnc(Nc3cc(COc4ccc(NC(=O)Nc5cc(C(C)(C)C)nn5-c5ccc(C)cc5)c5ccccc45)ccn3)cn2)CC1` [Example 271, 1-(3-(tert-butyl)-1-(p-tolyl)-1H-pyrazol-5-yl)-3-(4-((2-((5-(4-ethylpiperazine-1-carbonyl)pyrazin-2-yl)amino)pyridin-4-yl)methoxy)naphthalen-1-yl)urea] the value was 108 nM; for `Cc1ccc(-n2nc(C(C)(C)C)cc2NC(=O)Nc2ccc(OCc3ccnc(Nc4cnc(C(=O)N5CCC(N(C)C)CC5)cn4)c3)c3ccccc23)cc1` [Example 272], 4 nM.
As to `Cc1ccc(-n2nc(C(C)(C)C)cc2NC(=O)Nc2ccc(OCc3ccnc(Nc4cnc(C(=O)N5CCN(CCN(C)C)CC5)cn4)c3)c3ccccc23)cc1` [Example 273, 1-(3-(tert-butyl)-1-(p-tolyl)-1H-pyrazol-5-yl)-3-(4-((2-((5-(4-(2-(dimethylamino)ethyl)piperazine-1-carbonyl)pyrazin-2-yl)amino)pyridin-4-yl)methoxy)naphthalen-1-yl)urea], the IC50 was determined as 4.7 nM.
With `Cc1ccc(-n2nc(C(C)(C)C)cc2NC(=O)Nc2ccc(OCc3ccnc(Nc4cnc(C(=O)N5CCCN(C)CC5)cn4)c3)c3ccccc23)cc1` [Example 274, 1-(3-(tert-butyl)-1-(p-tolyl)-1H-pyrazol-5-yl)-3-(4-((2-((5-(4-methyl-1,4-diazepane-1-carbonyl)pyrazin-2-yl)amino)pyridin-4-yl)methoxy)naphthalen-1-yl)urea], the IC50 was found to be 13 nM.

For the origin of these results see patent US11142515B2, “Pyrazolyl-ureas as kinase inhibitors” (RESPIVERT LIMITED, priority 2014, dated 2021).
